This passage reports Activity results from ChEMBL document CHEMBL3286227, “Guanidinium-based derivatives: searching for new kinase inhibitors” (Eur J Med Chem, 2014).

Calls of active or inactive are those of the source. No cut-off for these calls is given here.

Assay [1] concerns HL-60. Put plainly: Cell cycle arrest in human HL60 cells assessed as accumulation at G2/M phase at 25 uM after 48 hrs by propidium iodide staining-based flow cytometry (reference value: 18.4 +/- 1.3%). In kind it is functional. A general note: Flow cytometry measures light scatter and fluorescence of single cells or particles in a stream.
In assay [2] the test system is HL-60. The assay can be described thus: Cell cycle arrest in human HL60 cells assessed as accumulation at Gn phase at 1 uM after 48 hrs by propidium iodide staining-based flow cytometry (reference value: 2.49 +/- 0.4%). In kind it is functional.
The subject of assay [3] is HL-60. The assay can be described thus: Cell cycle arrest in human HL60 cells assessed as accumulation at Gn phase at 10 uM after 48 hrs by propidium iodide staining-based flow cytometry (reference value: 2.49 +/- 0.4%). In kind it is functional.
For assay [4], the system named is HL-60. Put plainly: Cell cycle arrest in human HL60 cells assessed as accumulation at Gn phase at 50 uM after 48 hrs by propidium iodide staining-based flow cytometry (reference value: 2.49 +/- 0.4%). In kind it is functional.
Assay [5] concerns HL-60. The assay can be described thus: Cell cycle arrest in human HL60 cells assessed as accumulation at Gn phase at 1 uM after 72 hrs by propidium iodide staining-based flow cytometry (reference value: 2.49 +/- 0.3%). In kind it is functional.
Assay [6] concerns the target Serine/threonine-protein kinase B-raf (Homo sapiens) (UniProt P15056). The assay can be described thus: Competitive binding to B-RAF kinase (unknown origin) at 100 nM to 100 uM after 60 to 120 mins by FRET analysis.
Assay [7] concerns HL-60. Put plainly: Induction of apoptosis in human HL60 cells assessed as nuclear fragmentation at 50 uM after 72 hrs by microscopy relative to vehicle-treated control. In kind it is functional, cell-based.
The subject of assay [8] is HL-60. The assay can be described thus: Induction of apoptosis in human HL60 cells assessed as cell membrane blebbing at 50 uM after 72 hrs by microscopy relative to vehicle-treated control. In kind it is functional, cell-based.
For assay [9], the system named is HL-60. Put plainly: Cell cycle arrest in human HL60 cells assessed as accumulation at pre-G1 phase at 1 uM after 48 hrs by propidium iodide staining-based flow cytometry (reference value: 0.17%). In kind it is functional.
In assay [10] the test system is HL-60. Put plainly: Cell cycle arrest in human HL60 cells assessed as accumulation at pre-G1 phase at 10 uM after 48 hrs by propidium iodide staining-based flow cytometry (reference value: 0.17%). In kind it is functional.
For assay [11], the system named is HL-60. Put plainly: Cell cycle arrest in human HL60 cells assessed as accumulation at pre-G1 phase at 25 uM after 48 hrs by propidium iodide staining-based flow cytometry (reference value: 0.17%). In kind it is functional.
The subject of assay [12] is HL-60. Put plainly: Cell cycle arrest in human HL60 cells assessed as accumulation at G0/G1 phase at 25 uM after 48 hrs by propidium iodide staining-based flow cytometry (reference value: 57.0 +/- 1.0%). In kind it is functional.

Sequence of Serine/threonine-protein kinase B-raf (Homo sapiens) (P15056 whole entry, the tested form may be a part): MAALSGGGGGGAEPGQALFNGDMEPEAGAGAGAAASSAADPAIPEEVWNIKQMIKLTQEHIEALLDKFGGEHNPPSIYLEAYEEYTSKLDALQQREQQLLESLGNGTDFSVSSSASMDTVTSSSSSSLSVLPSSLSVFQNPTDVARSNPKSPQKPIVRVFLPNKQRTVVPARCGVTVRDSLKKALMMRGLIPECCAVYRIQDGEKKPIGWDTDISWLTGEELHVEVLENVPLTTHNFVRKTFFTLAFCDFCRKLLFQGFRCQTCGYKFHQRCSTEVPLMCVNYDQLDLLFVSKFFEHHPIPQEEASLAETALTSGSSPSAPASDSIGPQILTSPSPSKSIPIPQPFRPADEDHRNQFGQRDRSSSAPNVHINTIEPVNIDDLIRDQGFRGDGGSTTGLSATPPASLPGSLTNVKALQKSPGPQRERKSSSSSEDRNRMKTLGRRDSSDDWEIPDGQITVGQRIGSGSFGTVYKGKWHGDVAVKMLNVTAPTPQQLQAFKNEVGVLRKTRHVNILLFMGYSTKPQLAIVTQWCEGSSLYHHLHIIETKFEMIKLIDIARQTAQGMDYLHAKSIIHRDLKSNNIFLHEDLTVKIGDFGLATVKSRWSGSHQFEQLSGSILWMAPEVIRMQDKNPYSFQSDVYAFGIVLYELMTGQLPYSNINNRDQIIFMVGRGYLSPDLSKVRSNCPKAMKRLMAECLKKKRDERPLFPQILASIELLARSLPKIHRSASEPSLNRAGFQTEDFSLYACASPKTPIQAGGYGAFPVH

As for `Cl.N=C(N)Nc1ccc(Oc2cccc(NC(=N)Nc3ccc(Cl)c(C(F)(F)F)c3)c2)cc1`, the Activity in the assay on HL-60 [1] was determined as 20.2%; with HL-60 [2], 2.17%; with HL-60 [3], 2.17%; in the assay on HL-60 [4], 3.14%; in the assay with HL-60 [5], 3.23%; in the assay on HL-60 [9], 0.13%. Besides, the results for the Activity in the assay on HL-60 [10], with HL-60 [11] and in the assay on HL-60 [12] were 0.32%, 1.75% and 69.2%, respectively. Moreover, the outcome in assay [6] was inactive. In addition, the outcome with HL-60 [7] and in the assay with HL-60 [8] was Active.
